# Data as given in paper PMC9537177, “A VEGFR targeting peptide-drug conjugate (PDC) suppresses tumor angiogenesis in a TACE model for hepatocellular carcinoma therapy” (Cell Death Discovery, 2022).
# Where two headings read alike, the source gives them in different places. Square brackets hold non-standard residues; d marks the D form. Peptide text beside a SMILES is read from it. Aib = CC(C)(N)C(=O)O
# Experiments:
# [1] = test system: VX2 liver tumor; test: VX2 rabbit liver tumor model with TAE/TACE: tumor growth, necrosis, apoptosis, proliferation, angiogenesis; format: in vivo, New Zealand white rabbits; conditions: for mean tumor volume at 7 days after TAE procedure: 0.5 mL lipiodol emulsion into tumor-feeding artery, QR-KLU 4 mg/kg; for mean tumor volume at 7 days after TAE procedure / tumor growth rate (V7/V0 × 100%) / mean tumor necrosis rate: DOX 2 mg/kg, KLU 4 mg/kg; for mean tumor volume at 7 days after TAE procedure / mean tumor volume one day before TAE procedure: MR images, 24 rabbits evenly in four groups; for mean tumor volume at 7 days after TAE procedure / mean tumor necrosis rate / mean tumor volume one day before TAE procedure: mean ± SD; for tumor growth rate (V7/V0 × 100%): 7 days after TAE, NS group 276.4%; for tumor growth rate (V7/V0 × 100%) / mean tumor necrosis rate: QR-KLU 4 mg/kg in lipiodol; for mean proportion of apoptotic cells in tumor (TUNEL) / mean proportion of proliferating cells in tumor (Ki67) / mean tumor necrosis rate: 7 days after treatment; for mean proportion of apoptotic cells in tumor (TUNEL) / mean proportion of proliferating cells in tumor (Ki67): versus NS group; for mean tumor necrosis rate: H&E staining; for mean tumor volume one day before TAE procedure: baseline, V = a*b^2/2, VX2 rabbits
# Description: New Zealand white rabbits (2.5-3 kg) were purchased from the Laboratory Animal Center of Tongji Medical College of Huazhong University of Science and Technology (Wuhan, China). All the animal experimental procedures were performed in accordance with the National Institutes of Health Guidelines for the Care and Use of Laboratory Animals and the protocol was approved by the Ethics Committee of Tongji Medical College, Huazhong University of Science and Technology. Blinding was not possible in most animal experiments. The rabbit VX2 liver tumor model was established according to the method reported by Qian K et al.. […] The acquisition parameters of the sequence are as follows: […], TR 2750 ms, TE 65 ms, the field of view 120 mm × 120 mm, Slice thickness 3 mm in the transverse plane, matrix 152 × 152. The multi-vane technique was used to reduce artifacts and improve image quality, acquisition time 3 min […]; […] Seven days after TACE procedure, tumor size was evaluated again by MR scan and the tumor volume was calculated by formula: V = a * b^2/2 (a, long diameter; b, short diameter). And tumor growth rate was calculated by formula: […] Finally, the VX2 rabbits were sacrificed and the tumor tissues were harvested for biochemical analysis and histopathological examination. […] The IHC staining procedures were performed as previously described. Briefly, the sections were blocked in 3% H2O2 for 25 min and then incubated with goat serum for 15 min. Subsequently, the sections were first washed and incubated with anti-VEGF (1:200, Abcam, USA), and anti-CD31 (1:20; Abcam, USA) overnight at 4 °C, and then incubated with second antibody (Abcam, USA) at 37 °C for 50 min. Next, the sections were stained with 3, 3'-diaminobenzidine (DAB, Service bio, Wuhan […] Biotechnology Co., Ltd., China) for 6 min and rinsed and stained in hematoxylin for 30 s. The sections were then dehydrated in gradient alcohol and sealed in neutral resins. VEGF expression was assessed by semiquantitative IHC based on staining intensity and density, the staining intensity was scored as 0 (negative), 1 (weak), 2 (moderate), and 3 (strong), while the staining density was scored on the basis of the percentage of positively stained cells: 0 (0%), 1 (1-25%), 2 (26-50%), 3 (51-75%), and 4 (76-100%). The total VEGF IHC score was calculated by multiplying the intensity score by the density score. Microvessel density (MVD) was calculated according to the method developed by Weidner et al.
# [2] = test system: Huh7 cells; test: Cell viability (CCK8) assay, Huh7; format: cell-based, human; conditions: for IC50: CCK8, 48 h treatment in medium with 5% FBS, absorbance 450 nm, mean ± SD, read-out: IC50, cytotoxicity in Huh7 cells
# Description: (§1) All reagents were purchased from Gibco. All these cells were routinely tested for mycoplasma contamination and tested negative and maintained in a humidified incubator containing 5% CO2 at 37 °C. Cell viability for different cell lines were measured by cell counting kit-8 (CCK8) assays. The cells were incubated on a 96-well plate for 24 h in growth medium prior to drug treatment. […] Then CCK8 (10 μL) was added and the cells were incubated for 1 h at 37 °C with 5% CO2. Absorbance was measured with a microplate reader (Bio-Rad) at a wavelength of 450 nm.
# [3] = test system: HUVEC cells; test: Cell viability (CCK8) assay, HUVEC; format: cell-based, human
# Description: as §1
# [4] = Therapeutic safety in VX2 tumor-bearing rabbits (organ H&E, serum biochemistry); conditions: before and 1, 3, 7 days after treatment; 4 mg/kg in lipiodol via TAE
# Description: Twenty-four VX2 tumor-burdened rabbits were evenly divided into four groups. After fasting for 12 h, the rabbits were anesthetized by intravenous injection of pentobarbital sodium solution (2 wt.%, 30 mg/kg). The rabbit’s right femoral artery was dissected and a 4-F Cobra catheter (Cook, Inc., Bloomington, Indiana) was inserted into the celiac artery, hepatic arteriography was then performed under the guidance of digital subtraction angiography (DSA), and a 2.7-F coaxial microcatheter (Terumo, Tokyo, Japan) was super-selectively inserted into the tumor donor branch subsequently. The emulsion of drugs and lipiodol were slowly injected into the tumor-feeding artery through the above microcatheter at a speed of 0.5 mL/min. […] After obtaining all DSA images, the sheaths and catheters were removed.
# Seven days after treatment, the liver tumors, hearts, lungs, kidneys and spleens were harvested and fixed in 4% phosphate-buffered paraformaldehyde, the specimens were embedded in paraffin blocks and cut into 5‐μm‐thick sections. Following the manufacturer’s guidelines, the sections were stained with haematoxylin and eosin (H&E) for the evaluation of organ toxicity and tumor necrosis, Ki-67 staining and transfer-mediated dUTP nick end labeling (TUNEL) technique were used to detect tumor proliferation and apoptosis, respectively.
# Blood samples were collected before treatment and at 1, 3, 7 days after treatment. The blood samples were stood at room temperature for 30 min, and the serum was obtained by centrifugation (room temperature, 8000 rpm, 10 min) for assessment of alanine aminotransferase (ALT), aspartate aminotransferase (AST), total bilirubin (TBIL) and creatinine (CREA). The assays were performed using the commercially ready-made kits following the manufacturers’ instructions.
# [5] = test system: HUVEC cells; test: Wound-healing assay of HUVEC cells; format: cell-based, human; conditions: 24 h
# Description: Wound-healing assay was performed according to the protocols reported by Liang et al.. Briefly, HUVEC cells were plated into 12-well plate and grown to create a confluent monolayer. The monolayer was grazed in a straight line to create a “scratch” with a pipette tip. Markings were created close to the scratch to be used as reference points. Then cells were treated with different peptides for 24 h at 37 °C. Images were collected with a Leica DFC480 camera on a phase-contrast microscope equipped with a 10 × objective at room temperature. The free area of the wound was measured by image software. Supplementary Figure S1. Wound healing assay to detect the cell migration influenced by different peptides.
# [6] = test system: HUVEC cells; test: Annexin V-FITC/PI cell apoptosis assay, HUVEC; format: cell-based, human; conditions: 80 μM, 24 h, Annexin V-PI FACS
# Description: The improved proapoptotic activity of QR-KLU was further confirmed by Annexin V-PI staining through FACS. Viable cells, early apoptotic cells, necrotic cells, late apoptotic cells were represented by Q4, Q3, Q2 and Q1 respectively. […] Besides, QR-KLU induced cell apoptosis in a dose-dependent manner. […] The percentage of apoptotic cells in KLU peptide at 20 μM were about 25% in both Huh7 cells and HUVEC cells.
# (§2) The apoptosis assay was performed according to the manufacturer’s instructions using an Annexin V: Fluorescein Isothiocyanate (FITC) Apoptosis Detection Kit I (BD Pharmingen™). Briefly, Huh 7 or HUVEC cells were seeded in a 12-well plate and allowed to grow for 24 h in medium with 10% FBS. Then, the cells were treated with the different peptides in medium with 5% FBS for 24 h’ incubation. The cells were harvested with 0.25% trypsin/EDTA, washed twice with PBS and suspended in 1 × binding buffer. The suspended cells were treated with FITC-labeled Annexin V and propidium iodide (PI) as the protocol indicated and then analyzed by flow cytometry to determine the apoptotic cells. The cells with positive fluorescence intensity signals for both FITC and PI were used for the apoptotic cell count.
# Supplementary Figure S2. Cell apoptosis of HUVEC induced by different peptides. HUVEC cells were treated with PBS, 80μM QR, 20μM KLU, 5μM QR-KLU, 10μM QR-KLU for 24 hours before detection by FACS.
# [7] = test system: Huh 7 cells; conditions: 80 μM, 24 h, Annexin V-PI FACS
# Description: Viable cells, early apoptotic cells, necrotic cells, late apoptotic cells were represented by Q4, Q3, Q2 and Q1 respectively.
# as §2
Molecule,mean tumor volume at 7 days after TAE procedure [1],tumor growth rate (V7/V0 × 100%) [1],mean proportion of apoptotic cells in tumor (TUNEL) [1],mean proportion of proliferating cells in tumor (Ki67) [1],mean tumor necrosis rate [1],mean tumor volume one day before TAE procedure [1],"IC50 ([2]; Homo sapiens, Huh-7)","IC50 ([3]; CCK8, 48 h treatment in medium with 5% FBS, absorbance 450 nm, mean ± SD, read-out: IC50, cytotoxicity in HUVEC cells)",IC50 [2],"liver and renal toxicity (ALT, AST, TBIL, CREA in serum) [4]",cell migration of HUVEC (wound epithelial gap) ([5]; 20 μM),proapoptotic effect in HUVEC cells [6],proapoptotic effect in Huh 7 cells [7],"cellular toxicity in HUVEC cells ([3]; CCK8, 48 h, up to 80 μM)","cellular toxicity in Huh7 cells ([2]; CCK8, 48 h, up to 80 μM)",cell proliferation or migration of HUVEC (wound healing) ([5]; 80 μM)
"COc1cccc2c1C(=O)c1c(O)c3c(c(O)c1C2=O)C[C@@](O)(C(=O)CO)C[C@@H]3O[C@H]1C[C@H](N)[C@H](O)[C@H](C)O1 [DOX, doxorubicin]",1382.9 ± 563.7 mm^3,significantly lower than that of the NS group,significantly higher than that in NS group,significantly lower than that in NS group,81.4% ± 2.3,889.0 ± 317.7 mm^3,0.243 ± 0.076 µM,–,–,–,–,–,–,–,–,–
CC(=O)N[C@@H](CCCCN)C(=O)N[C@@H](CC(C)C)C(=O)NC(C)(C)C(=O)N[C@@H](CCCCN)C(=O)N[C@@H](CC(C)C)C(=O)NC(C)(C)C(=O)N[C@@H](CCCCN)C(=O)N[C@@H](CCCCN)C(=O)N[C@@H](CC(C)C)C(=O)NC(C)(C)C(=O)N[C@@H](CCCCN)C(=O)N[C@@H](CC(C)C)C(=O)NC(C)(C)C(=O)N[C@@H](CCCCN)C(N)=O [KLU] (Ac-KL[Aib]KL[Aib]KKL[Aib]KL[Aib]K-NH2),1321.4 ± 210.4 mm^3,significantly lower than that of the NS group,significantly higher than that in NS group,significantly lower than that in NS group,79.5% ± 8.0,991.8 ± 114.2 mm^3,–,33.8 ± 0.98 µM,36.3 ± 2.7 µM,no significant liver or renal toxicity,the wound epithelial gap was unchanged or even bigger,–,–,–,–,–
Ac-QKRKRKKSRYKS-NH2 [QR],–,–,–,–,–,–,–,–,–,–,–,didn’t show obvious proapoptotic effect,didn’t show obvious proapoptotic effect,negligible toxicity,negligible toxicity,not affected
